Measured values reported in patent US20210260010A1, “COMPOSITIONS AND METHODS FOR THE REDUCTION OR TREATMENT OF INFLAMMATION” (AXCELLA HEALTH INC., priority 2018, published 2021).

Legend:
CCL18 = assay: IL-4 induced CCL18 secretion in primary human monocyte-derived macrophages (ELISA); assay type: cell-based; conditions: for Donor 1 CCL18 Measurements Mean / Donor 2 CCL18 Measurements Mean: relative to vehicle control; for CCL18 Measurements: Mean (fold change relative to vehicle control): Donor 3, IL-4 induced; for IL-4 induced CCL18 secretion (fold change relative to vehicle control): macrophages
Method: Lymphocytes were purified from unpurified buffy coats (Research Blood Components) using Lymphocyte Separation Medium (Corning). After centrifugation, the PBMC layer was extracted and rinsed several times using Dulbecco's phosphate-buffered saline (DPBS; Gibco). After straining PBMCs through a 70 uM cell strainer, cells were resuspended and counted using a Cellometer K2 automated cell counter.
CD14+ cells were selected using EasySep™ Human CD14 Positive Selection Kit II ([…] Technologies) according to manufacturer-supplied protocols. Following isolation CD14+ cells were seeded into 10 cm tissue culture plates and differentiated into macrophages using M-CSF (Peprotech).
On day 0, primary human PBMC derived macrophages were seeded in Dulbecco's Modified Eagle Medium (DMEM) (Gibco) supplemented with penicillin-streptomycin (Hyclone) and 10% heat inactivated fetal bovine serum (HI-FBS) (Atlanta Bio) into 96-well microplates (ThermoFisher) and incubated overnight at 37° C., 5% CO2. On day 1, cells were washed once with DPBS and then treated with: • a. Amino acid free DMEM (US Biologicals) containing a defined custom amino acid concentration based on the mean physiological concentrations in blood based on values published in the Human Metabolome Database (HMDB), with 6 mM glucose, 1 mM sodium pyruvate, 10 mM HEPES, penicillin-streptomycin; or • b. The same medium described above with one amino acid or amino acid combination at various concentrations
On day 2, cells were treated with the same mediums described above supplemented with recombinant human interleukin-4 (IL-4; Peprotech). Control wells were treated with tofacitinib (Tocris) and IL-4, PBS with IL-4, or phosphate buffered saline (PBS) alone.
On day 3, the supernatant was collected and immediately frozen in −80° C. freezer. Cells were washed once with DPBS and viability was assessed using the WST-8 Cell Proliferation Cytotoxicity Assay (Dojindo) according to manufacturer-supplied protocol. Following the assay, cells were washed twice with PBS and fixed with 4% paraformaldehyde. Protein levels in supernatant samples were analyzed by ELISA for CCL18 using commercially available kits (R&D Systems) according to manufacturer-supplied protocols.

TNFα = assay: LPS-induced TNFα secretion in primary human monocyte-derived macrophages (ELISA); assay type: cell-based; set-up: TNFa Measurements Mean: unit not given here; conditions: for TNFa Measurements Mean: LPS 0.15 ng/mL; for TNFa Measurements Mean / Donor 2 TNFa Measurements Mean / Donor 3 TNFa Measurements Mean: baseline subtracted; for LPS-induced TNFα secretion: macrophages, 0.15 ng/mL LPS
Method: Unpurified buffy coats (Research Blood Components) were carefully poured into 50 mL centrifuge tubes and diluted with room temperature Dulbecco's Phosphate Buffered Saline (dPBS) with Calcium and Magnesium (Gibco). Diluted buffy coats were further divided into four total 50 mL centrifuge tubes at 20 mL per tube. Lymphocyte Separation Medium (Corning) was carefully pipetted to the bottom of each centrifuge tube. Mixtures were centrifuged at 850× g for 32 minutes at 20° C. with 0 deceleration and acceleration.
The PBMC layer was separated from other components after centrifugation and added to new 50 mL centrifuge tube containing 25 mL dPBS. Total volume was brought up to 50 mL with dPBS and centrifuged at 600×g for 10 minutes at 20° C. with acceleration of 9, deceleration of 5. Supernatant was carefully removed from cell pellets. The cell pellets were resuspended using 10 mL dPBS. Total volume was then brought up to 50 mL using dPBS and centrifuged at 450×g for 5 min at 20° C. with acceleration of 9, deceleration of 9. The supernatant removal and cell pellet resuspension was repeated again.
The supernatant was then carefully removed from cell pellets. Cell pellets were resuspended in 10 mL dPBS without calcium or magnesium and filtered through a 70 uM cell strainer. The total PBMC number was determined using a Cellometer K2 automated cell counter. A total of 5E6 cells were saved for flow cytometric analysis. Remaining cells were centrifuged at 490×g for 5 minutes at 20° C. with acceleration of 9, deceleration of 9.
CD14+ cells were selected using EasySep™ Human CD14 Positive Selection Kit II ([…] Technologies). Cells were resuspended in cold EasySep™ Buffer ([…] Technologies) at 1×10^8 cells/mL. A total of 100 uL/mL EasySep™ Human CD14 Positive Selection Cocktail II was added to the cell suspension, mixed, and incubated at room temperature for 10 minutes. A total of 100 uL/mL RapidSpheres were added to the mixture and incubated at room temperature for 3 minutes after mixing, then RoboSep buffer was added to bring up the total volume to 10 mL. The mixture in a 15 mL tube was placed in magnet and incubated at room temperature for 3 minutes. Supernatant was discarded and 10 mL fresh EasySep™ buffer was added to 15 mL tube. The addition of RoboSep buffer, mixing, and discarding of supernatant was repeated two more times.
Negative and positive fractions were centrifuged at 490×g for 5 minutes at 20° C. with acceleration of 9, deceleration of 9, and resuspended in DMEM (Gibco) and 10% Heat Inactivated Fetal Bovine Serum (Atlanta Bio) and Penicillin/Streptomycin. Cells were counted and centrifuged again at 490× g for 5 minutes at 20° C. with acceleration of 9, deceleration of 9. After centrifugation, cell were resuspended in DMEM (Gibco) and 10% Heat Inactivated Fetal Bovine Serum (Atlanta Bio) and Penicillin/Streptomycin containing 500 U/mL […] and plated at 1-2×10^6 cells/mL on 10 cm tissue culture plates. Cells were kept in 37° C., 5% CO2 in between feedings/harvest.
Cells were fed every 3-4 days by removing media and unattached cells, centrifuging at 490× g for 5 minutes at 20° C. with acceleration of 9, deceleration of 9, and resuspending in fresh DMEM (Gibco) and 10% Heat Inactivated Fetal Bovine Serum (Atlanta Bio) and Penicillin/Streptomycin containing GM-CSF. Resuspended cells were seeded back onto 10 cm tissue culture plates and incubated at 37° C., 5% CO2. Differentiated macrophages were used for subsequent experiments.
Primary human PMBC derived macrophages were seeded on day 0 at 3.0E4 cells per well in 96-well microplates (ThermoFisher) in Dulbecco's Modified Eagle Medium (DMEM) (Gibco) supplemented with penicillin-streptomycin (Hyclone) and 10% heat inactivated fetal bovine serum (HI-FBS) (Atlanta Bio) and incubated overnight at 37° C., 5% CO2. On day 1, cells were washed once with 150 uL per well DPBS (Gibco) and treated with 75 uL of: • a. […]

SMILES: CC(=O)N[C@@H](CS)C(=O)O [NAC, N-acetylcysteine]
- Donor 1 CCL18 Measurements Mean (CCL18; Donor 1, Conc. 4 X): 1.831 fold change
- Donor 1 CCL18 Measurements Mean (CCL18; Donor 1, Conc. 10 X): 1.979 fold change
- Donor 1 CCL18 Measurements Mean (CCL18; Donor 1, Conc. 20 X): 2.206 fold change
- Donor 1 CCL18 Measurements Mean (CCL18; Donor 1, Conc. 40 X): 2.464 fold change
- Donor 2 CCL18 Measurements Mean (CCL18; Donor 2, Conc. 5 X): 1.326 fold change
- Donor 2 CCL18 Measurements Mean (CCL18; Donor 2, Conc. 10 X): 1.293 fold change
- Donor 2 CCL18 Measurements Mean (CCL18; Donor 2, Conc. 20 X): 1.169 fold change
- Donor 2 CCL18 Measurements Mean (CCL18; Donor 2, Conc. 40 X): 1.517 fold change
- CCL18 Measurements: Mean (fold change relative to vehicle control) (CCL18; Conc. 5 X): 1.324 fold change
- CCL18 Measurements: Mean (fold change relative to vehicle control) (CCL18; Conc. 10 X): 1.67 fold change
- CCL18 Measurements: Mean (fold change relative to vehicle control) (CCL18; Conc. 20 X): 1.812 fold change
- CCL18 Measurements: Mean (fold change relative to vehicle control) (CCL18; Conc. 40 X): 1.887 fold change
- IL-4 induced CCL18 secretion (fold change relative to vehicle control) (CCL18; Donor 1): significantly increased
- IL-4 induced CCL18 secretion (fold change relative to vehicle control) (CCL18; Donor 2): significantly increased
- TNFa Measurements Mean (TNFα; Donor 1, Conc. 0 X (baseline)): 0
- TNFa Measurements Mean (TNFα; Donor 1, Conc. 5 X): −326.24
- TNFa Measurements Mean (TNFα; Donor 1, Conc. 10 X): −446.88
- TNFa Measurements Mean (TNFα; Donor 1, Conc. 20 X): −561.33
- TNFa Measurements Mean (TNFα; Donor 1, Conc. 40 X): −644.49
- Donor 2 TNFa Measurements Mean (TNFα; Donor 2, Conc. 0 X (baseline)): 9.47E−15
- Donor 2 TNFa Measurements Mean (TNFα; Donor 2, Conc. 5 X): −54.1596
- Donor 2 TNFa Measurements Mean (TNFα; Donor 2, Conc. 10 X): −70.8382
- Donor 2 TNFa Measurements Mean (TNFα; Donor 2, Conc. 20 X): −88.6528
- Donor 2 TNFa Measurements Mean (TNFα; Donor 2, Conc. 40 X): −103.984
- Donor 3 TNFa Measurements Mean (TNFα; Donor 3, Conc. 0 X (baseline)): 4.74E−15
- Donor 3 TNFa Measurements Mean (TNFα; Donor 3, Conc. 5 X): −33.6246
- Donor 3 TNFa Measurements Mean (TNFα; Donor 3, Conc. 10 X): −41.7266
- Donor 3 TNFa Measurements Mean (TNFα; Donor 3, Conc. 20 X): −48.4373
- Donor 3 TNFa Measurements Mean (TNFα; Donor 3, Conc. 40 X): −55.3093
- LPS-induced TNFα secretion (TNFα; Donor 1): significantly reduced
- LPS-induced TNFα secretion (TNFα; Donor 2): significantly reduced
- LPS-induced TNFα secretion (TNFα; Donor 3): significantly reduced

SMILES: CC[C@H](C)[C@H](N)C(=O)O [Isoleucine, L-Isoleucine]
- Donor 1 CCL18 Measurements Mean (CCL18; Donor 1, Conc. 66 μM): 1.07 fold change
- Donor 1 CCL18 Measurements Mean (CCL18; Donor 1, Conc. 1328 μM): 1.12 fold change
- Donor 1 CCL18 Measurements Mean (CCL18; Donor 1, Conc. 3320 μM): 1.181 fold change
- Donor 1 CCL18 Measurements Mean (CCL18; Donor 1, Conc. 6639 μM): 0.9823 fold change
- Donor 2 CCL18 Measurements Mean (CCL18; Donor 2, Conc. 66 μM): 1.204 fold change
- Donor 2 CCL18 Measurements Mean (CCL18; Donor 2, Conc. 1328 μM): 1.461 fold change
- Donor 2 CCL18 Measurements Mean (CCL18; Donor 2, Conc. 3320 μM): 1.503 fold change
- Donor 2 CCL18 Measurements Mean (CCL18; Donor 2, Conc. 6639 μM): 1.685 fold change
- CCL18 Measurements: Mean (fold change relative to vehicle control) (CCL18; Conc. 66 μM): 1.056 fold change
- CCL18 Measurements: Mean (fold change relative to vehicle control) (CCL18; Conc. 1328 μM): 1.026 fold change
- CCL18 Measurements: Mean (fold change relative to vehicle control) (CCL18; Conc. 3320 μM): 1.431 fold change
- CCL18 Measurements: Mean (fold change relative to vehicle control) (CCL18; Conc. 6639 μM): 1.111 fold change
- IL-4 induced CCL18 secretion (fold change relative to vehicle control) (CCL18; Donor 2): significantly increased
- TNFa Measurements Mean (TNFα; Donor 1, Conc. 66 μM (baseline)): 0
- TNFa Measurements Mean (TNFα; Donor 1, Conc. 1328 μM): −42.68
- TNFa Measurements Mean (TNFα; Donor 1, Conc. 3320 μM): −96.3
- TNFa Measurements Mean (TNFα; Donor 1, Conc. 6639 μM): −40.95
- Donor 2 TNFa Measurements Mean (TNFα; Donor 2, Conc. 66 μM (baseline)): 4.74E−15
- Donor 2 TNFa Measurements Mean (TNFα; Donor 2, Conc. 1328 μM): 2.919
- Donor 2 TNFa Measurements Mean (TNFα; Donor 2, Conc. 3320 μM): 10.26
- Donor 2 TNFa Measurements Mean (TNFα; Donor 2, Conc. 6639 μM): 19.26
- Donor 3 TNFa Measurements Mean (TNFα; Donor 3, Conc. 66 μM (baseline)): −2.4E−15
- Donor 3 TNFa Measurements Mean (TNFα; Donor 3, Conc. 1328 μM): −6.23
- Donor 3 TNFa Measurements Mean (TNFα; Donor 3, Conc. 3320 μM): 3.309
- Donor 3 TNFa Measurements Mean (TNFα; Donor 3, Conc. 6639 μM): −1.66
- LPS-induced TNFα secretion (TNFα; Donor 2): increased
